{"source": "PubChem BioAssay AID2060494", "about": "(Molecular Pharmacology Branch, DTP, NCI, 2025);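 note: spheroids exposed to the agents for seven days before readout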;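 for viability, T/C: percent of vehicle control viability with DMSO wells as 100%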", "system": "435261-313-R-J1-PDC complex spheroid viability", "test": "Anticancer human tumor 435261-313-R-J1-PDC patient-derived colon adenocarcinoma cell line growth inhibition [GQUAD]", "settings": "for IC50: curve of first compound; for viability, T/C: stronger effect = lower value", "how_it_was_run": "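Tumor cells were grown as complex spheroids with HUVEC endothelial cells and mesenchymal stem cells as stroma. G-quadruplex stabilizers were combined with targeted agents over half-log dilutions from near the clinical Cmax, or from 10 microM.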", "key": {"[1]": {"settings": "second compound 0.0316 µM, first compound 0.000999 µM"}, "[2]": {"settings": "second compound 0.0316 µM, first compound 0.00316 µM"}, "[3]": {"settings": "second compound 0.0316 µM, first compound 0.00999 µM"}, "[4]": {"settings": "second compound 0.0316 µM, first compound 0.0316 µM"}, "[5]": {"settings": "second compound 0.0316 µM, first compound 0.0999 µM"}, "[6]": {"settings": "second compound 0.0316 µM, first compound 0.316 µM"}, "[7]": {"settings": "second compound 0.1 µM, first compound 0.000999 µM"}, "[8]": {"settings": "second compound 0.1 µM, first compound 0.00316 µM"}, "[9]": {"settings": "second compound 0.1 µM, first compound 0.00999 µM"}, "[10]": {"settings": "second compound 0.1 µM, first compound 0.0316 µM"}, "[11]": {"settings": "second compound 0.1 µM, first compound 0.0999 µM"}, "[12]": {"settings": "second compound 0.1 µM, first compound 0.316 µM"}, "[13]": {"settings": "second compound 0.316 µM, first compound 0.000999 µM"}, "[14]": {"settings": "second compound 0.316 µM, first compound 0.00316 µM"}, "[15]": {"settings": "second compound 0.316 µM, first compound 0.00999 µM"}, "[16]": {"settings": "second compound 0.316 µM, first compound 0.0316 µM"}, "[17]": {"settings": "second compound 0.316 µM, first compound 0.0999 µM"}, "[18]": {"settings": "second compound 0.316 µM, first compound 0.316 µM"}, "[19]": {"settings": "second compound 1 µM, first compound 0.000999 µM"}, "[20]": {"settings": "second compound 1 µM, first compound 0.00316 µM"}, "[21]": {"settings": "second compound 1 µM, first compound 0.00999 µM"}, "[22]": {"settings": "second compound 1 µM, first compound 0.0316 µM"}, "[23]": {"settings": "second compound 1 µM, first compound 0.0999 µM"}, "[24]": {"settings": "second compound 1 µM, first compound 0.316 µM"}, "[25]": {"settings": "second compound 3.16 µM, first compound 0.000999 µM"}, "[26]": {"settings": "second compound 3.16 µM, first compound 0.00316 µM"}, "[27]": {"settings": "second compound 3.16 µM, first compound 0.00999 µM"}, "[28]": {"settings": "second compound 3.16 µM, first compound 0.0316 µM"}, "[29]": {"settings": "second compound 3.16 µM, first compound 0.0999 µM"}, "[30]": {"settings": "second compound 3.16 µM, first compound 0.316 µM"}, "[31]": {"settings": "second compound 10 µM, first compound 0.000999 µM"}, "[32]": {"settings": "second compound 10 µM, first compound 0.00316 µM"}, "[33]": {"settings": "second compound 10 µM, first compound 0.00999 µM"}, "[34]": {"settings": "second compound 10 µM, first compound 0.0316 µM"}, "[35]": {"settings": "second compound 10 µM, first compound 0.0999 µM"}, "[36]": {"settings": "second compound 10 µM, first compound 0.316 µM"}}, "data": [{"smiles": "CC[C@@]1(O)C(=O)OCc2c1cc1n(c2=O)Cc2cc3c(CN(C)C)c(O)ccc3nc2-1", "note": "+ Cc1[nH]c2ccc(F)cc2c1-c1nc2c3cccnc3c3ncccc3c2[nH]1", "values": [{"measurement": "IC50", "setting": "second compound 0.0316 µM", "value": "> 316", "unit": "nM"}, {"measurement": "IC50", "setting": "second compound 0.1 µM", "value": "> 316", "unit": "nM"}, {"measurement": "IC50", "setting": "second compound 0.316 µM", "value": "> 316", "unit": "nM"}, {"measurement": "IC50", "setting": "second compound 1 µM", "value": "> 316", "unit": "nM"}, {"measurement": "IC50", "setting": "second compound 3.16 µM", "value": "< 0.999", "unit": "nM"}, {"measurement": "IC50", "setting": "second compound 10 µM", "value": "< 0.999", "unit": "nM"}, {"measurement": "viability, T/C", "setting": "[1]", "value": 90.1, "unit": "%"}, {"measurement": "viability, T/C", "setting": "[2]", "value": 76.8, "unit": "%"}, {"measurement": "viability, T/C", "setting": "[3]", "value": 84.8, "unit": "%"}, {"measurement": "viability, T/C", "setting": "[4]", "value": 74.6, "unit": "%"}, {"measurement": "viability, T/C", "setting": "[5]", "value": 72.9, "unit": "%"}, {"measurement": "viability, T/C", "setting": "[6]", "value": 69, "unit": "%"}, {"measurement": "viability, T/C", "setting": "[7]", "value": 106, "unit": "%"}, {"measurement": "viability, T/C", "setting": "[8]", "value": 74.9, "unit": "%"}, {"measurement": "viability, T/C", "setting": "[9]", "value": 108, "unit": "%"}, {"measurement": "viability, T/C", "setting": "[10]", "value": 73.6, "unit": "%"}, {"measurement": "viability, T/C", "setting": "[11]", "value": 72.8, "unit": "%"}, {"measurement": "viability, T/C", "setting": "[12]", "value": 59.8, "unit": "%"}, {"measurement": "viability, T/C", "setting": "[13]", "value": 89.3, "unit": "%"}, {"measurement": "viability, T/C", "setting": "[14]", "value": 80, "unit": "%"}, {"measurement": "viability, T/C", "setting": "[15]", "value": 114, "unit": "%"}, {"measurement": "viability, T/C", "setting": "[16]", "value": 59.3, "unit": "%"}, {"measurement": "viability, T/C", "setting": "[17]", "value": 58.7, "unit": "%"}, {"measurement": "viability, T/C", "setting": "[18]", "value": 52.6, "unit": "%"}, {"measurement": "viability, T/C", "setting": "[19]", "value": 41.9, "unit": "%"}, {"measurement": "viability, T/C", "setting": "[20]", "value": 67.6, "unit": "%"}, {"measurement": "viability, T/C", "setting": "[21]", "value": 67.9, "unit": "%"}, {"measurement": "viability, T/C", "setting": "[22]", "value": 64.5, "unit": "%"}, {"measurement": "viability, T/C", "setting": "[23]", "value": 54.2, "unit": "%"}, {"measurement": "viability, T/C", "setting": "[24]", "value": 47.1, "unit": "%"}, {"measurement": "viability, T/C", "setting": "[25]", "value": 41.4, "unit": "%"}, {"measurement": "viability, T/C", "setting": "[26]", "value": 34.2, "unit": "%"}, {"measurement": "viability, T/C", "setting": "[27]", "value": 37.4, "unit": "%"}, {"measurement": "viability, T/C", "setting": "[28]", "value": 28.2, "unit": "%"}, {"measurement": "viability, T/C", "setting": "[29]", "value": 23.9, "unit": "%"}, {"measurement": "viability, T/C", "setting": "[30]", "value": 33.8, "unit": "%"}, {"measurement": "viability, T/C", "setting": "[31]", "value": 19.3, "unit": "%"}, {"measurement": "viability, T/C", "setting": "[32]", "value": 25.4, "unit": "%"}, {"measurement": "viability, T/C", "setting": "[33]", "value": 18.3, "unit": "%"}, {"measurement": "viability, T/C", "setting": "[34]", "value": 24.9, "unit": "%"}, {"measurement": "viability, T/C", "setting": "[35]", "value": 20.7, "unit": "%"}, {"measurement": "viability, T/C", "setting": "[36]", "value": 17.9, "unit": "%"}]}, {"smiles": "CCc1c2c(nc3ccc(O)cc13)-c1cc3c(c(=O)n1C2)COC(=O)[C@]3(O)CC", "note": "+ Cc1cnc(CNC(=O)c2c(=O)c3ccc(N4CCCN(C)CC4)nc3n3c2sc2ccccc23)cn1", "values": [{"measurement": "IC50", "setting": "second compound 0.0316 µM", "value": 53.2, "unit": "nM"}, {"measurement": "IC50", "setting": "second compound 0.1 µM", "value": 48, "unit": "nM"}, {"measurement": "IC50", "setting": "second compound 0.316 µM", "value": 11.2, "unit": "nM"}, {"measurement": "IC50", "setting": "second compound 1 µM", "value": "< 0.999", "unit": "nM"}, {"measurement": "IC50", "setting": "second compound 3.16 µM", "value": "< 0.999", "unit": "nM"}, {"measurement": "IC50", "setting": "second compound 10 µM", "value": "< 0.999", "unit": "nM"}, {"measurement": "viability, T/C", "setting": "[1]", "value": 63.5, "unit": "%"}, {"measurement": "viability, T/C", "setting": "[2]", "value": 60.3, "unit": "%"}, {"measurement": "viability, T/C", "setting": "[3]", "value": 56.9, "unit": "%"}, {"measurement": "viability, T/C", "setting": "[4]", "value": 53.3, "unit": "%"}, {"measurement": "viability, T/C", "setting": "[5]", "value": 47, "unit": "%"}, {"measurement": "viability, T/C", "setting": "[6]", "value": 30.9, "unit": "%"}, {"measurement": "viability, T/C", "setting": "[7]", "value": 66.2, "unit": "%"}, {"measurement": "viability, T/C", "setting": "[8]", "value": 65.6, "unit": "%"}, {"measurement": "viability, T/C", "setting": "[9]", "value": 52.2, "unit": "%"}, {"measurement": "viability, T/C", "setting": "[10]", "value": 52.7, "unit": "%"}, {"measurement": "viability, T/C", "setting": "[11]", "value": 47.1, "unit": "%"}, {"measurement": "viability, T/C", "setting": "[12]", "value": 17.5, "unit": "%"}, {"measurement": "viability, T/C", "setting": "[13]", "value": 52.9, "unit": "%"}, {"measurement": "viability, T/C", "setting": "[14]", "value": 60, "unit": "%"}, {"measurement": "viability, T/C", "setting": "[15]", "value": 51.5, "unit": "%"}, {"measurement": "viability, T/C", "setting": "[16]", "value": 34.5, "unit": "%"}, {"measurement": "viability, T/C", "setting": "[17]", "value": 36.9, "unit": "%"}, {"measurement": "viability, T/C", "setting": "[18]", "value": 1.36, "unit": "%"}, {"measurement": "viability, T/C", "setting": "[19]", "value": 38.9, "unit": "%"}, {"measurement": "viability, T/C", "setting": "[20]", "value": 35, "unit": "%"}, {"measurement": "viability, T/C", "setting": "[21]", "value": 35.6, "unit": "%"}, {"measurement": "viability, T/C", "setting": "[22]", "value": 28.7, "unit": "%"}, {"measurement": "viability, T/C", "setting": "[23]", "value": 14.9, "unit": "%"}, {"measurement": "viability, T/C", "setting": "[24]", "value": 0.15, "unit": "%"}, {"measurement": "viability, T/C", "setting": "[25]", "value": 13.5, "unit": "%"}, {"measurement": "viability, T/C", "setting": "[26]", "value": 12.2, "unit": "%"}, {"measurement": "viability, T/C", "setting": "[27]", "value": 4.86, "unit": "%"}, {"measurement": "viability, T/C", "setting": "[28]", "value": 0.17, "unit": "%"}, {"measurement": "viability, T/C", "setting": "[29]", "value": 0.14, "unit": "%"}, {"measurement": "viability, T/C", "setting": "[30]", "value": 0.15, "unit": "%"}, {"measurement": "viability, T/C", "setting": "[31]", "value": 0.15, "unit": "%"}, {"measurement": "viability, T/C", "setting": "[32]", "value": 0.14, "unit": "%"}, {"measurement": "viability, T/C", "setting": "[33]", "value": 0.19, "unit": "%"}, {"measurement": "viability, T/C", "setting": "[34]", "value": 0.2, "unit": "%"}, {"measurement": "viability, T/C", "setting": "[35]", "value": 0.2, "unit": "%"}, {"measurement": "viability, T/C", "setting": "[36]", "value": 0.14, "unit": "%"}]}]}
